Data reported in article PMC7764284, “Determination of the Synthetic Cannabinoids JWH-122, JWH-210, UR-144 in Oral Fluid of Consumers by GC-MS and Quantification of Parent Compounds and Metabolites by UHPLC-MS/MS” (International Journal of Molecular Sciences, 2020).

Experiments:
[1] = Oral fluid concentration-time course of SCs and metabolites in consumers after smoking self-administration (GC-MS and UHPLC-HRMS); settings: for second peak concentration in OF: after the decrease at 3 h
[2] = parameters: method as in PMID 21871150; settings: oral fluid; after smoking two types of herbal products; cited from earlier work
[3] = consumer smoked JWH-210 3 mg, UHPLC-HRMS
[4] = female, human, po, 3 mg, peak concentration (Cmax) in OF, consumer smoked JWH-210 3 mg, by UHPLC-HRMS, at 20 min
[5] = female, human, po, 3 mg, second peak concentration (Cmax) in OF, consumer smoked JWH-210 3 mg, UHPLC-HRMS, after 2 h

## CCc1ccc(C(=O)c2cn(CCCC(C)O)c3ccccc23)c2ccccc12 (centres unmarked) [JWH-210 N-(4-OH), (4-ethylnaphthalen-1-yl)(1-(4-hydroxypentyl)-1H-indol-3-yl)methanone]
[1]; [3]
  time of second peak concentration: 2 h
[1]; female, human, po, 3 mg
  Tmax: 20 min
[1]; [4]
  Cmax: 0.29 ng/mL
[1]; [5]
  Cmax: 0.98 ng/mL

## CCCCCn1cc(C(=O)c2ccc(CC)c3ccccc23)c2ccccc21 [JWH-210, (4-ethyl-1-naphthalenyl)(1-pentyl-1H-indol-3-yl)-methanone]
[1]; consumer smoked JWH-210 3 mg
  time after which undetectable in OF: 3 h
[1]; female, human, po, 3 mg
  Tmax: 20 min
[1]; female, human, po, 3 mg, peak concentration (Cmax) in OF, consumer smoked JWH-210 3 mg, by GC-MS, at 20 min
  Cmax: 8.1 ng/mL
[1]; [4]
  Cmax: 7.3 ng/mL

## CCCCCn1cc(C(=O)c2ccc(C)c3ccccc23)c2ccccc21 [JWH-122, (4-methyl-1-naphthalenyl)(1-pentyl-1H-indol-3-yl)-methanone]
[1]; consumer smoked JWH-122 1 mg, by GC-MS
  second peak concentration in OF: 2.00 ng/mL
[1]; consumer smoked JWH-122 1 mg, by UHPLC-HRMS
  second peak concentration in OF: 1.60 ng/mL
[1]; female, human, po, 1 mg
  Tmax: 20 min
[1]; female, human, po, 1 mg, peak concentration (Cmax) in OF, consumer smoked JWH-122 1 mg, by GC-MS, at 20 min
  Cmax: 4 ng/mL
[1]; female, human, po, 1 mg, peak concentration (Cmax) in OF, consumer smoked JWH-122 1 mg, by UHPLC-HRMS, at 20 min
  Cmax: 3.14 ng/mL

## Cc1ccc(C(=O)c2cn(CCCCCO)c3ccccc23)c2ccccc12 [JWH-122 N-(5-OH), (1-(5-hydroxypentyl)-1H-indol-3-yl)(4-methylnaphthalen-1-yl)-methanone]
[1]; consumer smoked JWH-122 1 mg, UHPLC-HRMS
  detection of metabolite in OF: only detected in traces under the LOQ

## CCCCCn1cc(C(=O)c2cccc3ccccc23)c2ccccc21 [JWH-018]
[2]
  time of peak OF concentration: 20 min

## CCc1ccc(C(=O)c2cn(CCCCCO)c3ccccc23)c2ccccc12 [JWH-210 N-(5-OH), (4-ethylnaphthalen-1-yl)(1-(5-hydroxypentyl)-1H-indol-3-yl)methanone]
[1]; [3]
  time of second peak concentration: 2 h
[1]; female, human, po, 3 mg
  Tmax: 20 min
[1]; [4]
  Cmax: 0.66 ng/mL
[1]; [5]
  Cmax: 0.61 ng/mL

## Cc1ccc(C(=O)c2cn(CCCC(C)O)c3ccccc23)c2ccccc12 (centres unmarked) [JWH-122 N-(4-OH), (1-(4-hydroxypentyl)-1H-indol-3-yl)(4-methylnaphthalen-1-yl)methanone]
[1]; consumer smoked JWH-122 1 mg, UHPLC-HRMS, between 10 min and 3 h after smoking
  concentration range in OF: 0.29 to 0.36 ng/mL
[1]; female, human, po, 1 mg
  concentration at 20 min: 0.29 ng/mL

## CC1(C)C(C(=O)c2cn(CCCCCO)c3ccccc23)C1(C)C [UR-144 N-(5-OH), [1-(5-hydroxypentyl)-1H-indol-3-yl](2,2,3,3-tetramethylcyclopropyl)-methanone]
[1]; consumer smoked UR-144 1 mg, UHPLC-HRMS, all the time-course
  detection of metabolite in OF: only detected in traces

## CCCCCn1cc(C(=O)C2C(C)(C)C2(C)C)c2ccccc21 [UR-144, (1-pentyl-1H-indol-3-yl)(2,2,3,3-tetramethylcyclopropyl)-methanone]
[1]; consumer smoked UR-144 1 mg
  time peak from smoking start: 20 min
  time to decrease to undetectable values in OF: ≤ 4 h
[1]; male, human, po, 1 mg, Cmax in OF, consumer smoked UR-144 1 mg, by GC-MS, at 20 min
  Cmax: 7.4 ng/mL
[1]; male, human, po, 1 mg, Cmax in OF, consumer smoked UR-144 1 mg, by UHPLC-HRMS, at 20 min
  Cmax: 6.81 ng/mL
